Results published in patent US20240368150A1 (Hoffmann-La Roche Inc., priority 2021, published 2024).
Read-outs that look alike come from different tables or passages of the source.

Columns and labels:
primary human T-cells [1] = assay: Proliferation assay after 5 days (CellTiter-Glo, CD3 stimulation; PBS counter screen); format: cell-based; conditions: CD3 stimulation; for Emax proliferation (% activation) / Emax: 5 days, normalized to reference compound A1 as stimulator control = 100%, DMSO neutral control; for EC50: primary human T-cells, CellTiter-Glo after 5 days, EC50 of fitted sigmoidal curve, read-out: Tcell Proliferation CD3 EC50; for Emax: read-out: Emax proliferation (% activation)
How it was run: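 Cpds added to medium-only plates; 5 d culture. Readout CellTiter-Glo 2.0 (equal vol), RT 45 min equilibration, 15 min rocking RT, luminescence. ATP signal taken as cell number.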

MV-3 cells = assay: T-cell - TCB - MV3 killing assay (MCSP-TCB, RFP object count by Incucyte); format: cell-based, human; conditions: 5 d; for Emax: normalized: MCSP-TCB only = neutral control, 20 μM reference compound A1 = 100%, read-out: MSCP TCB killing MV-3 cells 5 d Emax; for EC50: primary human T-cells + MCSP-TCB, MV-3 RFP cells, read-out: MSCP TCB killing MV-3 cells 5 d EC50
primary human T-cells [2] = system: primary human T-cells

Row | SMILES | Emax proliferation (% activation) (primary human T-cells [1]) | EC50 (primary human T-cells [1]) [nM] | Emax (MV-3 cells; Homo sapiens, MV-3, 120 h) [%] | EC50 (MV-3 cells) [nM] | EC50 (primary human T-cells [2]) [nM] | Emax (primary human T-cells [1]; Homo sapiens, T-cell, 120 h) [%] | EC50 (primary human T-cells [1]; Homo sapiens, T-cell, 120 h) [nM] | EC50 (MV-3 cells; Homo sapiens, MV-3, 120 h) [nM]
1 | CC[C@H](NC)C(=O)N[C@H]1CS(=O)(=O)c2cc(F)c(-c3nnc(C(C)(C)C)o3)cc2N(Cc2ccc(Cl)cc2)C1=O [Example 270, (2S)-2-(methylamino)-N-[(3R)-7-(5-tert-butyl-1,3,4-oxadiazol-2-yl)-5-[(4-chlorophenyl)methyl]-8-fluoro-1,1,4-trioxo-2,3-dihydro-1λ^6,5-benzothiazepin-3-yl]butanamide] | 111 | 39.7 | 81 | 20 | 57.4 | – | – | –
2 | N[C@H]1CS(=O)(=O)c2cc(F)c(-c3nnc(NC4CC(F)(F)C4)o3)cc2N(Cc2ccc(Cl)cc2)C1=O [Example 462, (3R)-3-amino-5-[(4-chlorophenyl)methyl]-7-[5-[(3,3-difluorocyclobutyl)amino]-1,3,4-oxadiazol-2-yl]-8-fluoro-1,1-dioxo-2,3-dihydro-1λ^6,5-benzothiazepin-4-one] | – | – | 100 | 350 | 986 | 121 | 562 | –
3 | N[C@H]1CS(=O)(=O)c2cc(F)c(-c3nnc(NC4CCCC4)o3)cc2N(Cc2ccc(Cl)cc2)C1=O [Example 455, (3R)-3-amino-5-[(4-chlorophenyl)methyl]-7-[5-(cyclopentylamino)-1,3,4-oxadiazol-2-yl]-8-fluoro-1,1-dioxo-2,3-dihydro-1λ^6,5-benzothiazepin-4-one] | – | – | 91 | 370 | 225 | 115 | 339 | –
4 | CC(C)(C)n1cnc(-c2cc3c(cc2F)S(=O)(=O)C[C@H](N)C(=O)N3Cc2ccc(Cl)cc2)n1 [Example 286, (3R)-3-amino-7-(1-tert-butyl-1,2,4-triazol-3-yl)-5-[(4-chlorophenyl)methyl]-8-fluoro-1,1-dioxo-2,3-dihydro-1λ^6,5-benzothiazepin-4-one] | – | – | 100 | 80 | > 20000 | 93 | 338 | –
5 | NC(c1nnc(-c2cc3c(cc2F)S(=O)(=O)C[C@H](N)C(=O)N3Cc2ccc(Cl)cc2)o1)C(F)(F)F (stereo partly drawn) [Example 122, (3R)-3-amino-7-[5-(1-amino-2,2,2-trifluoro-ethyl)-1,3,4-oxadiazol-2-yl]-5-[(4-chlorophenyl)methyl]-8-fluoro-1,1-dioxo-2,3-dihydro-1λ^6,5-benzothiazepin-4-one] | – | – | 86 | 510 | 238 | 92 | 782 | –
6 | CC(C)Nc1nnc(-c2cc3c(cc2F)S(=O)(=O)C[C@H](N)C(=O)N3Cc2ccc(Cl)cc2)o1 [Example 464, (3R)-3-amino-5-[(4-chlorophenyl)methyl]-8-fluoro-7-[5-(isopropylamino)-1,3,4-oxadiazol-2-yl]-1,1-dioxo-2,3-dihydro-1λ^6,5-benzothiazepin-4-one] | – | – | 89 | 460 | 1130 | 111 | 1040 | –
7 | CC(C)(CO)c1noc(-c2cc3c(cc2F)S(=O)(=O)C[C@H](N)C(=O)N3Cc2ccc(Cl)cc2)n1 (racemic) [Example 46] | – | – | 83 | 1040 | 686 | 94 | 1820 | –
8 | CN(CC(F)(F)F)c1nnc(-c2ccc3c(c2)N(Cc2ccc(Cl)cc2)C(=O)[C@@H](N)CS3(=O)=O)o1 [Example 392, (3R)-3-amino-5-[(4-chlorophenyl)methyl]-7-[5-[methyl(2,2,2-trifluoroethyl)amino]-1,3,4-oxadiazol-2-yl]-1,1-dioxo-2,3-dihydro-1λ^6,5-benzothiazepin-4-one] | – | – | 92 | 210 | 568 | 96 | 948 | –
9 | N[C@H]1CS(=O)(=O)c2ccc(-c3nnc(NC4CC(F)(F)C4)o3)cc2N(Cc2ccc(Cl)cc2)C1=O [Example 397, (3R)-3-amino-5-[(4-chlorophenyl)methyl]-7-[5-[(3,3-difluorocyclobutyl)amino]-1,3,4-oxadiazol-2-yl]-1,1-dioxo-2,3-dihydro-1λ^6,5-benzothiazepin-4-one] | – | – | 92 | 1850 | 649 | 82 | 2190 | –
10 | N[C@H]1CS(=O)(=O)c2cc(F)c(-c3nnc(NC4CCCC(F)(F)C4)o3)cc2N(Cc2ccc(Cl)cc2)C1=O (stereo partly drawn) [Example 463, (3R)-3-amino-5-[(4-chlorophenyl)methyl]-7-[5-[(3,3-difluorocyclohexyl)amino]-1,3,4-oxadiazol-2-yl]-8-fluoro-1,1-dioxo-2,3-dihydro-λ^6,5-benzothiazepin-4-one] | – | – | 91 | 540 | 577 | 104 | 519 | –
11 | CC(C)(C)n1nnc(-c2ccc3c(c2)N(Cc2ccc(Cl)cc2)C(=O)[C@@H](N)CS3(=O)=O)n1 [Example 36] | – | – | 81 | 390 | 472 | 86 | 404 | –
12 | CC(C)(C)c1nc(-c2cc3c(cc2F)S(=O)(=O)C[C@H](N)C(=O)N3Cc2ccc(Cl)cc2)no1 [Example 289, (3R)-3-amino-7-(5-tert-butyl-1,2,4-oxadiazol-3-yl)-5-[(4-chlorophenyl)methyl]-8-fluoro-1,1-dioxo-2,3-dihydro-1λ^6,5-benzothiazepin-4-one] | – | – | 97 | – | 158 | 124 | 187 | 120
13 | C[C@H](N)C(=O)N[C@H]1CS(=O)(=O)c2cc(F)c(-c3nnc(C(C)(C)C)o3)cc2N(Cc2ccc(Cl)cc2)C1=O [Example 262] | – | – | 92 | 30 | < 162 | 101 | < 162 | –
14 | CN1CC(c2nnc(-c3cc4c(cc3F)S(=O)(=O)C[C@H](N)C(=O)N4Cc3ccc(Cl)cc3)o2)CC(F)(F)C1 (stereo partly drawn) [Example 451, (3R)-3-amino-5-[(4-chlorophenyl)methyl]-7-[5-(5,5-difluoro-1-methyl-3-piperidyl)-1,3,4-oxadiazol-2-yl]-8-fluoro-1,1-dioxo-2,3-dihydro-1λ^6,5-benzothiazepin-4-one] | 200 | 82.1 | 88 | 160 | 153 | – | – | –
15 | CC(C)(C)c1nnc(-c2cc3c(cc2F)S(=O)(=O)C[C@H](N)C(=O)N3Cc2ccc(Cl)nc2)o1 [Example 237, (3R)-3-amino-7-(5-tert-butyl-1,3,4-oxadiazol-2-yl)-5-[(6-chloro-3-pyridyl)methyl]-8-fluoro-1,1-dioxo-2,3-dihydro-1λ^6,5-benzothiazepin-4-one] | – | – | 84 | 450 | 526 | 106 | 1300 | –
16 | N[C@H]1CS(=O)(=O)c2ccc(-c3nnc(NC4CCCC(F)(F)C4)o3)cc2N(Cc2ccc(Cl)cc2)C1=O (stereo partly drawn) [Example 401, (3R)-3-amino-5-[(4-chlorophenyl)methyl]-7-[5-[(3,3-difluorocyclohexyl)amino]-1,3,4-oxadiazol-2-yl]-1,1-dioxo-2,3-dihydro-1λ^6,5-benzothiazepin-4-one] | – | – | 92 | 1540 | 446 | 69 | 1130 | –
17 | CCc1nnc(-c2cc3c(cc2F)S(=O)(=O)C[C@H](N)C(=O)N3Cc2ccc(Cl)cc2)o1 [Example 72, (3R)-3-Amino-5-[(4-chlorophenyl)methyl]-7-(5-ethyl-1,3,4-oxadiazol-2-yl)-8-fluoro-1,1-dioxo-2,3-dihydro-1λ^6,5-benzothiazepin-4-one] | – | – | 115 | 310 | 3240 | 124 | 1140 | –
18 | CC(C)(C)c1nnc(-c2cc3c(cc2F)S(=O)(=O)C[C@H](N)C(=O)N3Cc2ccc(OC(F)(F)C(F)F)cc2)o1 [Example 232, (3R)-3-amino-7-(5-tert-butyl-1,3,4-oxadiazol-2-yl)-8-fluoro-1,1-dioxo-5-[[4-(1,1,2,2-tetrafluoroethoxy)phenyl]methyl]-2,3-dihydro-1λ^6,5-benzothiazepin-4-one] | – | – | 83 | 30 | 37 | 127 | 57.6 | –
19 | CN1CCC(n2nnc(-c3cc4c(cc3F)S(=O)(=O)C[C@H](N)C(=O)N4Cc3ccc(Cl)cc3)n2)C1 (stereo partly drawn) [Example 12, (3R)-3-amino-5-[(4-chlorophenyl)methyl]-8-fluoro-7-[2-(1-methylpyrrolidin-3-yl)tetrazol-5-yl]-1,1-dioxo-2,3-dihydro-1λ^6,5-benzothiazepin-4-one] | – | – | 96 | 910 | 967 | 84 | 1020 | –
20 | N[C@H]1CS(=O)(=O)c2cc(F)c(-c3nc(CC(F)(F)F)no3)cc2N(Cc2ccc(Cl)cc2)C1=O [Example 49, (3R)-3-amino-5-[(4-chlorophenyl)methyl]-8-fluoro-1,1-dioxo-7-[3-(2,2,2-trifluoroethyl)-1,2,4-oxadiazol-5-yl]-2,3-dihydro-1λ^6,5-benzothiazepin-4-one] | – | – | 100 | 170 | 2180 | 112 | 585 | –
